{"source": "paper PMC8330100", "about": "“Similarities and differences in the localization, trafficking, and function of P-glycoprotein in MDR1-EGFP-transduced rat versus human brain capillary endothelial cell lines” (Fluids and Barriers of the CNS, 2021)", "key": {"[1]": {"system": "Pgp expression in RBE4 cells", "assay": "Western blot of Pgp expression, RBE4 cells", "assay_type": "cell-based, rat", "procedure": "(§1) Piet Borst (The Netherlands Cancer Institute, Amsterdam, The Netherlands) as template. The linker sequence in the vector fusing EGFP and MDR1 consists of 36 bp ([…]). hCMEC/D3-WT, RBE4-WT, and hCMEC/D3-MDR1-EGFP cell lines were cultivated as previously described. The same culture conditions were used for the newly prepared RBE4-MDR1-EGFP cell line. As described previously, hydrocortisone (1.4 µM) was added to the culture medium to enhance the expression and functionality of Pgp and transendothelial resistance. All endothelial cell lines were grown on rat-tail collagen I (60 µg/mL, Gibco) coated 100 mm cultures dishes or permeable membrane supports at 37 °C and 5% CO2. Pgp-EGFP protein expression in MDR1-EGFP transduced cells was induced by cell cultivation in medium containing […] doxycycline. Expression of Pgp-EGFP was regularly verified by observing the cells with an inverted fluorescence microscope. Doxycycline supplementation of the medium was maintained during the whole culturing period of Pgp-EGFP expressing cells. For experiments, hCMEC/D3 and RBE4 cells were seeded in a density of 50,000 cells/cm^2. […]\n(§2) Pgp expression in immortalized cell lines, primary cells, and brain capillaries was evaluated by western blotting."}, "[2]": {"system": "Pgp expression in hCMEC/D3 cells", "assay": "Western blot of Pgp expression, hCMEC/D3 cells", "assay_type": "cell-based, human", "procedure": "as §1, §2"}}, "data": [{"smiles": "C[C@H]1c2cccc(O)c2C(=O)C2=C(O)[C@]3(O)C(=O)C(C(N)=O)=C(O)[C@@H](N(C)C)[C@@H]3[C@@H](O)[C@@H]21", "note": "[dox, doxycycline]", "values": [{"measurement": "increase of Pgp expression in comparison to WT cells", "setting": "[1]; RBE4-MDR1-EGFP in the presence of dox, normalized to β-actin", "result": 9, "unit": "fold"}, {"measurement": "effect on Pgp expression in WT cells", "setting": "[1]; RBE4-WT", "result": "did not affect"}, {"measurement": "increase of Pgp expression in comparison to WT cells", "setting": "[2]; hCMEC/D3-MDR1-EGFP in the presence of dox, normalized to β-actin", "result": "sevenfold"}, {"measurement": "effect on Pgp expression in WT cells", "setting": "[2]; hCMEC/D3-WT", "result": "did not affect"}]}]}
